The record followed here is ChEMBL document CHEMBL2176918, “Design and optimization of pyrazinecarboxamide-based inhibitors of diacylglycerol acyltransferase 1 (DGAT1) leading to a clinical candidate dimethylpyrazinecarboxamide phenylcyclohexylacetic acid (AZD7687)” (J Med Chem, 2012).

Molecules are shown by their SMILES.

A short description of data set [1]: Photostability stability by Hanau sun test. It is filed as physicochemical.
Data set [2] is described as follows: Chemical stability in pH 1 to 10 buffer at 25 degC. It is filed as physicochemical.
The target of another data set is Cytochrome P450 2D6 (Homo sapiens, UniProt P10635). The data set is described as follows: Inhibition of CYP2D6. Format: ADME.
Sequence of Cytochrome P450 2D6 (P10635 whole entry): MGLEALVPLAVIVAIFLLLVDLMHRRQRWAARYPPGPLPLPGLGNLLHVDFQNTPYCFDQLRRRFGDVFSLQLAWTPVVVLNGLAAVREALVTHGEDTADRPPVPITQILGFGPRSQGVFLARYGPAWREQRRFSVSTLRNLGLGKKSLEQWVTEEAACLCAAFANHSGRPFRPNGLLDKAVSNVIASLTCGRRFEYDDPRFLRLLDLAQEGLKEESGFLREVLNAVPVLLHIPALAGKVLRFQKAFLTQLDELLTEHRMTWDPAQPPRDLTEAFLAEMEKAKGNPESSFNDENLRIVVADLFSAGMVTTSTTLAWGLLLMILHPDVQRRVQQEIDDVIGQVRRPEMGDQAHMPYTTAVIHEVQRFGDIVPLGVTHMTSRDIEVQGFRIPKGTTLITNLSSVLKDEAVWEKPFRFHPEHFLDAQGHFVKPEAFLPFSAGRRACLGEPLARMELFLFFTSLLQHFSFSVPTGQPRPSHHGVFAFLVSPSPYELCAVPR
A further data set addresses T1, O-acyltransferase (Canis lupus familiaris, UniProt A0A8I3N393).
T1 sequence (A0A8I3N393 whole entry): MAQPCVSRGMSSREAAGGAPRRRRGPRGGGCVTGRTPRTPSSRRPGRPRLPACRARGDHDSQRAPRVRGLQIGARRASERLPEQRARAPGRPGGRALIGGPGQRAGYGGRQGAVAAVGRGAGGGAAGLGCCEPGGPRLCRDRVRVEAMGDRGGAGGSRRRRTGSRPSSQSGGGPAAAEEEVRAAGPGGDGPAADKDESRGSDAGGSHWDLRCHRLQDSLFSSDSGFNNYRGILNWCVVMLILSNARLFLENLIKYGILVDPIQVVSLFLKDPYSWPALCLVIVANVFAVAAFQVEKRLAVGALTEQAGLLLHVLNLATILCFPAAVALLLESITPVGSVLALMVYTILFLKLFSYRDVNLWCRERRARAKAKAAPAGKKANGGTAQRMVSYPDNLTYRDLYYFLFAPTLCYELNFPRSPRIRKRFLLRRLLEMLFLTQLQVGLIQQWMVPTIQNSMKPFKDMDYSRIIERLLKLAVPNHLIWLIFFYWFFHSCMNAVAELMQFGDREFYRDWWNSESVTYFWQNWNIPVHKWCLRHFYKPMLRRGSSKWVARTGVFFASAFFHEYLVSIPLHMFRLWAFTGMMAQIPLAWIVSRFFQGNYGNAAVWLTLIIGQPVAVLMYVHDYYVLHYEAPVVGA
Kind of data set: Inhibition of DGAT1 in dog liver microsomes. Details: species or system Microsome.

Data set [3] can be described thus: Fraction unbound in human plasma at 37 degC by LC-UV/MS method based equilibrium dialysis method. On the technique in general: Equilibrium dialysis compares concentrations on both sides of a semipermeable membrane.
Data set [4] concerns the target T2, Diacylglycerol O-acyltransferase 1 (Homo sapiens, UniProt O75907).
T2 sequence (O75907 whole entry): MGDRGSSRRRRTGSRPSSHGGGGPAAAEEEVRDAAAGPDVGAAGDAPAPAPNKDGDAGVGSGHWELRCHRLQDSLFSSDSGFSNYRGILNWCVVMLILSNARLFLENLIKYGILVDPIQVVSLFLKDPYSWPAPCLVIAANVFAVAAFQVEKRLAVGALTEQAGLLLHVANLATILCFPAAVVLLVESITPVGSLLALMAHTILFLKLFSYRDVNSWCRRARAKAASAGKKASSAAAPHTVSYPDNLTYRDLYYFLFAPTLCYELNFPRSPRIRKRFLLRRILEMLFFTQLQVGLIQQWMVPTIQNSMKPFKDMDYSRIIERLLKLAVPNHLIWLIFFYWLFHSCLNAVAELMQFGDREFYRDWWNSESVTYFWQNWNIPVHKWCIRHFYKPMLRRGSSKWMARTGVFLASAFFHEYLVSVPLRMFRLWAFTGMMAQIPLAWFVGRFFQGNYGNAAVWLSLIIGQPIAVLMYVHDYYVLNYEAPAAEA
Description: Inhibition of human recombinant DGAT1 expressed in Sf9 cells by liquid scintillography

With `Cc1nc(C)c(-c2ccc(C3CCC(CC(=O)O)CC3)cc2)nc1C(N)=O` (stereo unspecified) [AZD-7687], the figures for the half-life in data set [1] and in data set [2] were 7.6 h and more than 100 days, respectively. The IC50 – broadly, the concentration needed to halve the response being measured – at Cytochrome P450 2D6 is more than 30000 nM; against O-acyltransferase, 60 nM; in data set [4], 80 nM. Besides, in data set [3], the fraction unbound (as a rule, the share of the substance not bound to proteins or other matrix) turned out to be 0.047.
